Converted amounts (≈) assume the structure as drawn.
Columns and labels:
blood pressure = experiment: Blood pressure of genetically hypertensive rats, P.O. 50 mg/kg; assay type: in vivo; details: 50 mg./kg. orally, tested as hydrochloride salts, + increase, - decrease in b.p.; for change in vivo at 50 mg/kg: Rattus norvegicus, po
Experimental: The blood pressure of unanesthetized rats and dogs was measured directly by means of a transducer attached to an intra-arterial cannula and in anesthetized dogs by a mercury manometer attached to a carotid cannula.
The compounds of the instant invention were tested as the hydrochloride salts by the above method in genetically hypertensive rats in doses of 50 mg./kg. orally.

[1] = system: adenosine diphosphate (ADP) induced platelet aggregation; experiment: In vitro inhibition of ADP induced platelet aggregation (aggregometer method of Born, modified); assay type: cell-based; details: Oryctolagus cuniculus; rabbit platelet rich plasma, ADP 0.5 mcg./ml.
Experimental: (§1) The aggregometer method of Born (1), as modified by Mustard et al. (2) was used to assess the in vitro activity of the various compounds as to inhibition of adenosine diphosphate (ADP) and collagen induced platelet aggregation. Platelet rich plasma was separated by centrifugation from citrated (3.8 percent) rabbit blood. ADP in final concentration of 0.5 mcg./ml. or 0.05 ml. of a collagen suspension prepared according to the method described by Evans et al. (3) was used to induce aggregation. The various compounds tested were dissolved in dimethylsulfoxide (DMSO) so that 5 mcl. added to the platelet rich plasma would yield the desired test concentration. Vehicle control trials were done and compared with aggregation induced in platelet rich plasma containing various concentrations of the test compounds. Dose response curves were obtained and Effective Concentration (EC50) values calculated.
(§2) 2. mustard, J. F., Hegardt, B. Rowsell, H. C. and MacMillan, R. L., J. Lab. Clin. Med. 64, 548 (1964).

[2] = system: collagen induced platelet aggregation; experiment: In vitro inhibition of collagen induced platelet aggregation (aggregometer method of Born, modified); assay type: cell-based; details: Oryctolagus cuniculus; rabbit platelet rich plasma, 0.05 ml. collagen suspension
Experimental: as §1, §2
3. Evans, G. Marian M. C., Packham, M. A., Nishizawa, E. E., Mustard, J. F. and Murphy, E. A., J. Exp. Med., 128, 877 (1968).

[3] = system: ADP induced platelet aggregation; experiment: In vivo/in vitro ADP induced platelet aggregation after I.P. dosing of rabbits; design: species or system rabbit; details: Oryctolagus cuniculus, ip, 1 to 2 hours after dosing, dose for 50% inhibition of aggregation
Experimental: (§3) *In vivo/In vitro testing:
(§4) Before dosing the animals, blood samples are taken. The blood is centrifuged to obtain the blood platelet-rich plasma. Aggregation of this plasma is induced with ADP or collagen. This is the control.
(§5) The animals are then dosed with the compounds to be tested (orally or parenterally). Depending upon the route of administration, 1 to 2 hours are allowed to elapse after dosing. Blood is drawn and the same procedure employed as for the control in untreated animals.
The dose required to produce 50% inhibition of the aggregation is determined by dose response data obtained in this manner.

[4] = system: ADP induced platelet aggregation; experiment: In vivo/in vitro ADP induced platelet aggregation after P.O. dosing of dogs; design: species or system dog; details: 1 to 2 hours after dosing
Experimental: as §3, §4, §5

SMILES | EC50 [1] | EC50 [2] | change in vivo at 50 mg/kg (blood pressure) | ED50 [3] | In Vivo/In Vitro Dogs P.O. 5 mg./kg. ADP % Inhibition [4] | Blood Pressure % Change Rats P.O. 50 mg./kg. (blood pressure)
O=C1CCN2Cc3ccccc3N=C2N1 [Compound 19, 6-[H]-1,2,3,4-Tetrahydropyrimido[2,1-b]-quinazolin-2-one] | 25 µg/mL (≈ 124 µM) | 4 µg/mL (≈ 19.9 µM) | -32 ± 4% |  |  | 
Cc1cccc2c1CN1CCC(=O)NC1=N2 [Compound 22] | 3 µg/mL (≈ 13.9 µM) | 0.3 µg/mL (≈ 1.39 µM) | -26 ± 9% | > 10 mg/kg |  | 
CC1c2ccccc2N=C2NC(=O)CN21 (stereo not drawn) [Compound 29] | 2 µg/mL (≈ 9.94 µM) | 7 µg/mL (≈ 34.8 µM) | -28% | 35 mg/kg |  | 
COc1cc2c(cc1OC)N=C1NC(=O)CN1C2 [Compound 17] | 5 µg/mL (≈ 20.2 µM) |  | 26% | 4 mg/kg | 0% | 
Cc1cccc2c1N=C1NC(=O)CCN1C2 [Compound 24] |  |  | -19% |  |  | 
O=C1CN2Cc3cc4c(cc3N=C2N1)OCO4 [Compound 18] | 0.7 µg/mL (≈ 3.03 µM) | 0.07 µg/mL (≈ 0.303 µM) | -25 ± 12% | > 50 mg/kg |  | 
O=C1CCN2Cc3c(Cl)cccc3N=C2N1 [Compound 20] | 6 µg/mL (≈ 25.5 µM) | 0.7 µg/mL (≈ 2.97 µM) | -12 ± 1% | 8 mg/kg |  | 
O=C1CN2Cc3cccc(Cl)c3N=C2N1 [Compound 5] | 7 µg/mL (≈ 31.6 µM) | 0.3 µg/mL (≈ 1.35 µM) | -10 ± 1% | 6 mg/kg |  | 
COc1cccc2c1N=C1NC(=O)CCN1C2 [Compound 27] |  |  | 1% |  |  | 
COc1cccc2c1CN1CCC(=O)NC1=N2 [Compound 25] | 2 µg/mL (≈ 8.65 µM) | 0.4 µg/mL (≈ 1.73 µM) | -5 ± 3% | 8 mg/kg |  | 
Cc1ccc2c(c1)C(C)N1CC(=O)NC1=N2 (stereo not drawn) [Compound 51, 5,7-Dimethyl-1,2,3,5-tetrahydroimidazo-[2,1-b]quinazolin-2-one] |  |  | -34% |  |  | 
Cc1c(Cl)ccc2c1CN1CC(=O)NC1=N2 [Compound 45, 7-Chloro-6-methyl-1,2,3,5-tetrahydroimidazo[2,1-b]quinazolin-2-one] | 0.09 µg/mL (≈ 0.382 µM) | 0.012 µg/mL (≈ 0.0509 µM) |  |  | 46 ±8% | 
COc1cccc2c1CN1CC(=O)NC1=N2 [Compound 13, 6-methoxy-1,2,3,5-tetrahydroimidazo-[2,1-b]quinazolin-2-one] | 0.5 µg/mL (≈ 2.3 µM) | 0.2 µg/mL (≈ 0.921 µM) | -20 ± 14% | 4 mg/kg | 19% | 
COc1ccc2c(c1OC)CN1CC(=O)NC1=N2 [Compound 16, 6,7-dimethoxy-1,2,3,5-tetrahydroimidazo[2,1-b]quinazolin-2-one] | 0.4 µg/mL (≈ 1.62 µM) |  |  | 0.7 mg/kg |  | 
COc1cc2c(cc1OC)N=C1NC(=O)CCN1C2 [Compound 28] |  | 32 µg/mL (≈ 122 µM) | 7% |  |  | 
COc1ccc2c(c1)CN1CCC(=O)NC1=N2 [Compound 26] | 6 µg/mL (≈ 25.9 µM) | 1.5 µg/mL (≈ 6.49 µM) | -19 ± 6% | > 10 mg/kg |  | 
Cc1cccc2c1C(C)N1CC(=O)NC1=N2 (stereo not drawn) [Compound 50, 5,6-dimethyl-1,2,3,5-tetrahydroimidazo[2,1-b]quinazolin-2-one] |  |  | -49% |  |  | 
O=C1CN2Cc3c(ccc4ccccc34)N=C2N1 [Compound 39] |  |  | -59% |  |  | 
COc1cccc2c1N=C1NC(=O)CN1C2 [Compound 15] |  |  | -16 ± 3% |  |  | 

Further lines, with some results ahead:

EC50 [1] | EC50 [2] | SMILES | change in vivo at 50 mg/kg (blood pressure) | ED50 [3] | In Vivo/In Vitro Dogs P.O. 5 mg./kg. ADP % Inhibition [4] | Blood Pressure % Change Rats P.O. 50 mg./kg. (blood pressure)
2 µg/mL (≈ 9.94 µM) | 0.3 µg/mL (≈ 1.49 µM) | Cc1ccc2c(c1)CN1CC(=O)NC1=N2 [Compound 11] |  | > 10 mg/kg |  | 
0.4 µg/mL (≈ 1.5 µM) | 0.2 µg/mL (≈ 0.752 µM) | O=C1CN2Cc3cc(Br)ccc3N=C2N1 [Compound 6, 7-Bromo-1,2,3,5-tetrahydroimidazo[2,1-b]-quinazolin-2-one] | -8 ± 3% | 5 mg/kg |  | 
1 µg/mL (≈ 4.6 µM) | 0.2 µg/mL (≈ 0.921 µM) | COc1ccc2c(c1)CN1CC(=O)NC1=N2 [Compound 14, 7-methoxy-1,2,3,5-tetrahydroimidazo[2,1-b]quinazolin-2-one] | -19 ± 4% | 4 mg/kg | 17% | 
50 µg/mL (≈ 247 µM) | 6 µg/mL (≈ 29.7 µM) | Nc1ccc2c(c1)CN1CC(=O)NC1=N2 [Compound 9, 7-Amino-1,2,3,5-tetrahydroimidazo-[2,1-b]quinazolin-2-one] | -10 ± 14% |  |  | 
16 µg/mL (≈ 74.3 µM) | 2 µg/mL (≈ 9.29 µM) | Cc1ccc2c(c1)CN1CCC(=O)NC1=N2 [Compound 23] | -7 ± 2% |  |  | 
2 µg/mL (≈ 8.61 µM) | 0.2 µg/mL (≈ 0.861 µM) | O=C1CN2Cc3cc([N+](=O)[O-])ccc3N=C2N1 [Compound 8, 7-Nitro-1,2,3,5-tetrahydroimidazo-[2,1-b]quinazolin-2-one] | 5 ± 2% | > 10 mg/kg |  | 
6 µg/mL (≈ 32.1 µM) | 2 µg/mL (≈ 10.7 µM) | O=C1CN2Cc3ccccc3N=C2N1 [Compound 1, 1,2,3,5-tetrahydroimidazo [2,1-b]-quinazolin-2-one] | -36 ± 6% | > 72 mg/kg |  | 
3 µg/mL (≈ 10.7 µM) | 1.5 µg/mL (≈ 5.35 µM) | O=C1CCN2Cc3cc(Br)ccc3N=C2N1 [Compound 21, 8-Bromo-6-[H]-1,2,3,4-tetrahydropyrimido[2,1-b]quinazolin-2-one] |  | 9 mg/kg |  | Toxic
6 µg/mL (≈ 29.2 µM) | 2 µg/mL (≈ 9.75 µM) | O=C1CN2Cc3ccc(F)cc3N=C2N1 [Compound 7] | -27 ± 3% | > 10 mg/kg |  | 
1 µg/mL (≈ 4.51 µM) | 0.02 µg/mL (≈ 0.0902 µM) | O=C1CN2Cc3c(Cl)cccc3N=C2N1 [Compound 2, 6-chloro-1,2,3,5-tetrahydroimidazo[2,1-b]quinazolin-2-one] | -37 ± 8% | 2 mg/kg |  | 
0.5 µg/mL (≈ 2.48 µM) | 0.1 µg/mL (≈ 0.497 µM) | Cc1cccc2c1CN1CC(=O)NC1=N2 [Compound 10, 6-methyl-1,2,3,5-tetrahydroimidazo-[2,1-b]quinazolin-2-one] | -37 ± 8% | 0.6 mg/kg | 76% | 
4 µg/mL (≈ 19.9 µM) | 3 µg/mL (≈ 14.9 µM) | Cc1cccc2c1N=C1NC(=O)CN1C2 [Compound 12] | -22 ± 10% | > 10 mg/kg |  | 
6 µg/mL (≈ 27.1 µM) | 1.5 µg/mL (≈ 6.77 µM) | O=C1CN2Cc3ccc(Cl)cc3N=C2N1 [Compound 4] | -14% | 18 mg/kg |  | 
0.5 µg/mL (≈ 2.26 µM) | 0.2 µg/mL (≈ 0.902 µM) | O=C1CN2Cc3cc(Cl)ccc3N=C2N1 [Compound 3] | -4 ± 5% | > 10 mg/kg |  | 

From US3932407A, “Optionally substituted 1,2,3,5-tetrahydroimidezo(2,1-b)-quinazolin-2-ones and 6(H)-1,2,3,4-tetrahydropyimido(2,1-b)quinazolin-2-ones” (Bristol-Myers Company, priority 1974, dated 1976)
